Consider one compound from patent US20110009435A1, “HETERO BICYCLIC CARBOXAMIDE DERIVATIVES AND THEIR PHARMACEUTICAL USE AND COMPOSITIONS” (Pfizer, Inc., priority 2007, published 2011).

Test [1] addresses T1, catalytic domain of human recombinant MMP-3 (Homo sapiens, UniProt P08254).
T1 construct: made in house
The test is described as follows: In vitro MMP inhibition assay, MMP-3 catalytic domain (fluorogenic peptide substrate cleavage, Ki). The format is biochemical. As to conditions: human MMP-3, catalytic domain (CD); read-out: hMMP Ki 03/CD. Put shortly:
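The MMP-3 catalytic domain was expressed in E. coli and refolded with zinc. It was preincubated with inhibitor for 1 hr at room temperature in MES buffer pH 6.0 with 1% DMSO, then 4 μM Mca/Dnp fluorogenic peptide was added (ex 330/em 420 nm). Ki came from Morrison-equation fits of rates, with substrate at or below Km and no substrate correction.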

The next test deals with T2, Human recombinant MMP-1 (Homo sapiens, UniProt P03956).
T2 construct: made in house; host or cells: MMP-1-transfected HT-1080 cells
T2 sequence (P03956 100-469): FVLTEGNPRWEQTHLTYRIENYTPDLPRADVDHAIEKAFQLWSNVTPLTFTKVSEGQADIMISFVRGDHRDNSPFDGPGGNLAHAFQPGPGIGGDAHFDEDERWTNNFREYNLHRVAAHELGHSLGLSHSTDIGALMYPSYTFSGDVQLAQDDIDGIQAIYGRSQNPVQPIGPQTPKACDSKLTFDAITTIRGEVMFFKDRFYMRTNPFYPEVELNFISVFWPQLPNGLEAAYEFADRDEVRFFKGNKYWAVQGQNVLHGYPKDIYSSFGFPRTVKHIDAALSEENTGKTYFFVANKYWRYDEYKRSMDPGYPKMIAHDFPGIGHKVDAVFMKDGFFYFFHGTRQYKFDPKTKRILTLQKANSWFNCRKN
The test is described as follows: In vitro MMP inhibition assay, MMP-1 (fluorogenic peptide substrate cleavage, Ki). It is filed as biochemical. As to conditions: human MMP-1, full length (FL); read-out: hMMP Ki 01/FL. The method, then: Matrix Metalloproteinase inhibitor compounds were analyzed in in vitro MMP Inhibition assays to determine their ability to inhibit the MMP cleavage of peptide substrates. Inhibition constants (Ki) were calculated from the assayed compound-MMP interactions.
Human recombinant MMP-1, MMP-2, MMP-3, MMP-7, MMP-9, MMP-12, MMP-13, MMP-14 and MMP-15 were used in these assays. The enzymes are prepared following known laboratory procedures. Protocols for the preparation and use of these enzymes are available in the scientific literature. See, e.g., Enzyme Nomenclature (Academic Press, San Diego, Calif., 1992) and the citations therein. See also Frije et al., J. Biol. Chem., 26(24), 16766-73 (1994).
The MMP-1 proenzyme may be purified from spent media of MMP-1-transfected HT-1080 cells and the protein purified on a zinc chelating column. The MMP-2 proenzyme may be purified by gelatin Sepharose chromatography from MMP-2-transfected p2AHT2 cells. […]
The inhibitors are analyzed using a single low enzyme concentration with a single substrate concentration fixed at or below the Km. […] Apparent inhibitory constants are determined by non-linear regression of reaction velocity as a function of inhibitor and enzyme concentration using Morrison's equation, as described by Kuzmic, Anal. Biochem. 286, 45-50 (2000). […]

A value given as a limit tells only on which side of the number the result lay.

T1 sequence (P08254 100-272 limits assumed): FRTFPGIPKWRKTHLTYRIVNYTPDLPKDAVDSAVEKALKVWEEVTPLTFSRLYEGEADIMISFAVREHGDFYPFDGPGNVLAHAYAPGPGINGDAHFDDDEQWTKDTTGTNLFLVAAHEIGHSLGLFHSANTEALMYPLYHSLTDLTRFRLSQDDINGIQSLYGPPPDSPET

As to `COc1cccc(CNC(=O)c2nc3ccc(F)c(OCCC4CCN(C(=O)CO)CC4)c3c(=O)[nH]2)c1` [Example 34, 6-fluoro-5-[2-(1-glycoloylpiperidin-4-yl)ethoxy]-N-(3-methoxybenzyl)-4-oxo-3,4-dihydroquinazoline-2-carboxamide], the Ki in test [1] was 1570 nM; on Human recombinant MMP-1 it was over 10000 nM.
